Results reported in publication PMC4997609, “Wedelolactone enhances osteoblastogenesis by regulating Wnt/β-catenin signaling pathway but suppresses osteoclastogenesis by NF-κB/c-fos/NFATc1 pathway” (Scientific Reports, 2016).

Target: T1, GSK3β (Homo sapiens, UniProt P49841)
T1 construct: gene GSK3B
Assay: ADP-Glo kinase assay with GSK3β, GSK3β substrate and […] ATP
Assay type: biochemical

T1 sequence (P49841 whole entry): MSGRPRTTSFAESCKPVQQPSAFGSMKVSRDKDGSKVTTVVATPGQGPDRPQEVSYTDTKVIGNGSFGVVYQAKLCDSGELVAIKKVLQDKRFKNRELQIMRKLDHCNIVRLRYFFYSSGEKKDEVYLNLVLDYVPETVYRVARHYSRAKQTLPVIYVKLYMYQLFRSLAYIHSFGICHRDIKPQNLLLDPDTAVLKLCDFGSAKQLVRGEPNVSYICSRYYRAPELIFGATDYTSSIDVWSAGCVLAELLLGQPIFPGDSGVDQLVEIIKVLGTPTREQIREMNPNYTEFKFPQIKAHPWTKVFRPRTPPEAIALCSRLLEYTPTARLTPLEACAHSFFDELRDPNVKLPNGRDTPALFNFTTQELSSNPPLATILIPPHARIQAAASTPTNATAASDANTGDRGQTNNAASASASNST

IC50: 21.7 µM
SMILES: COc1cc(O)c2c(c1)oc(=O)c1c3cc(O)c(O)cc3oc21 [wedelolactone]
